Test [1] concerns E7 56-70 specific T-cell clones from subject 15-04. Briefly: Enzyme-linked immunospot assays defining the core sequence of the CD4 T-cell epitope. Particulars: for Response (spot-forming units) among the six overlapping 10-mer peptides: FIG. 3A, three of the four T-cell clones tested; for Response (spot-forming units) among the six overlapping 10-mer peptides / Number of spot-forming units, 15-mer, 11-mer, 10-mer and 9-mer peptides compared: peptide concentration 10 μM; for Number of spot-forming units, 15-mer, 11-mer, 10-mer and 9-mer peptides compared: FIG. 3B; for Number of spot-forming units with serially diluted peptides: FIG. 3C, clones #45 and #207.

Test [2] relates to Human Leukocyte Antigen class II molecule. Briefly: Enzyme-linked immunospot assay identifying the restricting Human Leukocyte Antigen molecule. Particulars: allogeneic B-lymphoblastoid cell line cells sharing class II molecules with subject 15-04, E7 56-70 peptide used in the assay.
In test [3] the test system is Human Leukocyte Antigen molecule. Particulars: from the literature; cited from earlier work.
The subject of test [4] is T-cell clones from subject 15-04. Briefly: Enzyme-linked immunospot assay for exogenous presentation (pulsed autologous dendritic cells). Particulars: FIG. 2B; clones #11, #207, #304; 2.5×10^3 dendritic cells per well.

“Also recorded” adds a separate entry of the source.

Take “CCKCDSTLRL (E7 58-67 peptide from immunodominant epitope region of Human Papilloma Virus 16 E7 protein)”: in test [1], the “Response (spot-forming units) among the six overlapping 10-mer peptides” value is “strongest response; also recorded: highest number of spot-forming units”; the “Number of spot-forming units, 15-mer, 11-mer, 10-mer and 9-mer peptides compared” value (“Number … 10-mer and 9-mer peptides compared” for short) was “Equally large numbers of spot-forming units; also recorded: equally high number of spot-forming units”; the “Number of spot-forming units with serially diluted peptides” value (from here on “Number … with serially diluted peptides”) is given as “equivalent numbers of spot forming units; also recorded: equivalent numbers of spot-forming units”.

Consider “CCKCDSTLRLC (E7 58-68 peptide from immunodominant epitope region of Human Papilloma Virus 16 E7 protein)”, for which the “Number … 10-mer and 9-mer peptides compared” value in test [1] is recorded as “Equally large numbers of spot-forming units; also recorded: equally high number of spot-forming units”. Further, the “Number … with serially diluted peptides” value in test [1] was “equivalent numbers of spot forming units; also recorded: equivalent numbers of spot-forming units”. The Restriction element entry in test [2] is “Human Leukocyte Antigen-DR17 molecule”; in test [2] (listed as HPV 16 E7 58-68), “Human Leukocyte Antigen-DR17 molecule”; in test [2] (listed as novel CD4 T-cell epitope), “Human Leukocyte Antigen-DR 17 molecule”; in test [2] (listed as novel HPV 16 E7 CD4 T-cell epitope), “Human Leukocyte Antigen-DR17 molecule”.

“CKCDSTLRLC (E7 59-68 peptide from immunodominant epitope region of Human Papilloma Virus 16 E7 protein)”: in test [1], the “Response (spot-forming units) among the six overlapping 10-mer peptides” value was “strongest responses; also recorded: highest number of spot-forming units”; the “Number … 10-mer and 9-mer peptides compared” value is “Equally large numbers of spot-forming units; also recorded: equally high number of spot-forming units”; the “Number … with serially diluted peptides” value is reported as “equivalent numbers of spot forming units; also recorded: equivalent numbers of spot-forming units”.

Regarding “E6 43-57: previously described HPV 18 E6 CD4 epitope (EVFEFAFKDLFVVYR; UniProt P06463 43-57, looked up, fragment)”, the “Restriction element of described epitope” value in test [3] is reported as “Human Leukocyte Antigen-DRB1*15”.

For “E6 127-141: previously described HPV 16 E6 CD4 epitope (DKKQRFHNIRGRWTG; UniProt P03126 127-141, looked up, fragment)”, in test [3], the “Restriction element of described epitope” value is “Human Leukocyte Antigen-DRB1*01”.

For “E7 35-50: previously described Human Papilloma virus-specific CD4 T-cell epitope of the E7 protein (EDEIDGPAGQAEPDRA; UniProt P03129 35-50, looked up, fragment)”, in test [3], the “Restriction element of described epitope” value is reported as “Human Leukocyte Antigen-DQ2”.

On to “E7 43-77: previously described Human Papilloma virus-specific CD4 T-cell epitope of the E7 protein (GQAEPDRAHYNIVTFCCKCDSTLRLCVQSTHVDIR; UniProt P03129 43-77, looked up, fragment)”, for which the “Restriction element of described epitope” value in test [3] is given as “Human Leukocyte Antigen-DR3”.

Take “E7 50-62: previously described Human Papilloma virus-specific CD4 T-cell epitope of the E7 protein (AHYNIVTFCCKCD; UniProt P03129 50-62, looked up, fragment)”: the “Restriction element of described epitope” value in test [3] is reported as “Human Leukocyte Antigen-DR15”.

In the case of “E7 59-67: 9-mer peptide of HPV 16 E7 contained in the 11-mer E7 58-68 (CKCDSTLRL; UniProt P03129 59-67, looked up, fragment)”, the “Number … 10-mer and 9-mer peptides compared” value in test [1] is “negative repeatedly”.

As for “E7 60-68: 9-mer peptide of HPV 16 E7 contained in the 11-mer E7 58-68 (KCDSTLRLC; UniProt P03129 60-68, looked up, fragment)”, the “Number … 10-mer and 9-mer peptides compared” value in test [1] is reported as “negative repeatedly”.

With “E7 61-80: previously described Human Papilloma virus-specific CD4 T-cell epitope of the E7 protein (CDSTLRLCVQSTHVDIRTLE; UniProt P03129 61-80, looked up, fragment)”, in test [3], the “Restriction element of described epitope” value is reported as “Human Leukocyte Antigen-DR9”.

With “EPDRAHYNIVTFCCKCDSTLRLCVQ (E7 46-70 peptide from immunodominant epitope region of Human Papilloma Virus 16 E7 protein) [HPV type 16 E7 46-70]”, the Restriction element result in test [2] is listed as “Human Leukocyte Antigen major histocompatibility complex class II molecule”.

“HPV 16 E7 71-85: previously described HPV 16 E7 epitope, 15 amino acids long (STHVDIRTLEDLLMG; UniProt P03129 71-85, looked up, fragment)”: the “Restriction element of described epitope” value in test [3] is listed as “Human Leukocyte Antigen-DQB1*02”.

As to “LEDLLMGTL (E7 79-87 control peptide from immunodominant epitope region of Human Papilloma Virus 16 E7 protein) [HPV 16 E7 79-87]”, in test [3], the “Restriction element of described epitope” value was “Human Leukocyte Antigen-B69”.

B1: E7 protein: recombinant HPV 16 E7 protein pulsed to autologous mature dendritic cells (protein)
chain: MHGDTPTLHEYMLDLQPETTDLYCYEQLNDSSEEEDEIDGPAGQAEPDRAHYNIVTFCCKCDSTLRLCVQSTHVDIRTLEDLLMGTLGIVCPICSQKP
In the case of B1, the “Response (interferon-γ secretion) of T-cell clones to pulsed autologous dendritic cells” value in test [4] is given as “demonstrated interferon-γ secretion; also recorded: positive responses”.

(Values after patent US20090117140A1, “Human papilloma virus dominant CD4 T cell epitopes and uses thereof” (priority 2007, published 2009).)
